Measured values published in patent EP0496617B1, “Adenosine kinase inhibitors” (priority 1991, dated 1992).
Where two headings read alike, the source gives them in different places.

What was measured:
rat cardiomyocytes = conditions: inhibition of adenosine deaminase alone; cited from earlier work
[1] = system: human umbillical vein endothelial cells; assay: Inhibition of neutrophil adherence to endothelial cells; assay type: cell-based; conditions: fMLP-stimulated human neutrophils, 2 hours at 37°C; reversed by adenosine deaminase; Figure 2
Procedure: The ability of an adenosine kinase inhibitor to affect neutrophil adherence to fibroblasts and endothelial cells was evaluated in a cell culture model.
These incubations were carried out in the presence of fMLP-stimulated human neutrophils isolated from whole blood (1.25 x 10^6/ml) with or without adenosine deaminase (0.125 U/ml). At the end of the incubation, the medium was removed and the monolayers of fibroblasts or endothelial cells and adherent neutrophils were fixed by addition of formaldehyde (3.7%) and, after washing to remove non-adherent neutrophils, adherent neutrophils were stained with Weigart's hematoxylin and counted under a light microscope.

guinea pig brain slices = conditions: cited from earlier work
mice = conditions: cited from earlier work
rats = assay: Electroshock-induced seizures; assay type: in vivo; conditions: for No. of Animals (protected/tested): 1 hour before electroshock
Procedure: The ability of the adenosine kinase inhibitors to influence electroshock-induced seizures was also evaluated in an experimental model.
After 1 hour, corneal electrodes were applied to the eyes of each animal and an electrical stimulus of 160 mA delivered for 0.2 seconds. Animals were isolated in separate cages and observed for seizure. Abolition of the hindleg tonic extensor component is taken as the end point for this test and reflects ability of the compound to prevent seizure spread.

anesthetized rats = conditions: cited from earlier work
rat brain slices = conditions: cited from earlier work
Male Swiss Webster mice = assay: PTZ-induced seizures; assay type: in vivo; conditions: IP at doses of 1, 5 and 10 mg/kg, 45 minutes before PTZ; Figure 4 A
Procedure: The ability of selected adenosine kinase inhibitors to influence PTZ-induced seizures was evaluated in an experimental animal model.
[…] After injections of the convulsant, animals were isolated in separate cages and observed for the onset of seizure.

A1 receptor = molecular target: T1, A1 receptor (Homo sapiens, UniProt P30542); assay: A1 receptor binding affinity ([3H]CHA, neuronal membrane); conditions: 1 nM [3H]CHA, 60 min at 37°C
T1 construct: 1 nM [^3H]CHA and 0.5 mg of neuronal membrane; from tissue
T1 sequence (P30542 1-326): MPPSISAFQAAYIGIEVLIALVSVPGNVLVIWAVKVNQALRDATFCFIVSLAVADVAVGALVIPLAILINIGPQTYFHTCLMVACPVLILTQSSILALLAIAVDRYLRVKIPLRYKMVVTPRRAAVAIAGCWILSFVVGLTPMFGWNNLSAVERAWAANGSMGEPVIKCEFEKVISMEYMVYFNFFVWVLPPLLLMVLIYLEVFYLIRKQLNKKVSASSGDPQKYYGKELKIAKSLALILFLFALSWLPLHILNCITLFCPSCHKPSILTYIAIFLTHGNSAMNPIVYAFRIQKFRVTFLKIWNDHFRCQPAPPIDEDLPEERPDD
Source text: The reaction was stopped and unbound [^3H]CHA removed by rapid filtration through Whatman GF/B filters. The filter papers were then solubilized and bound [^3H]CHA determined by scintillation counting.

[2] = molecular target: purified pig heart adenosine kinase (Sus scrofa, UniProt A0A5G2R0F5); assay: Inhibition of adenosine kinase activity; assay type: biochemical
Procedure: Inhibition of enzyme activity was determined using a 0.1 ml assay mixture containing 50 mM Tris-maleate, pH 7.0, 0.1% (w/v) BSA, 1 mM ATP, 1 mM MgCl2, 0.5 µM [U-^14C] adenosine (500 mCi/mmol) and 0.1 µg of purified pig heart adenosine kinase. Different concentrations of the test compounds were incubated in the assay mixture for 20 min at 37°C. From each reaction mixture, 20 µl portions were removed and spotted on 2 cm^2 pieces of Whatman DE81 filter paper. The papers were then washed to remove [^14C] adenosine in 1mM ammonium formate followed by deionized water and finally 95% ethanol. The papers were dried, and [^14C]AMP measured by scintillation counting. Activities were determined from the amount of [^14C]AMP formed. This is a suitable in vitro test method for determining adenosine kinase enzyme inhibition activity.

[3] = system: Isolated guinea pig hearts; assay: Functional recovery in isolated hearts after low flow ischemia (Langendorff); conditions: Conc. 0.3 ( M) in perfusion buffer; for Functional Recovery (% preischemic LVDP): 45 minutes low flow ischemia, 30 minutes reperfusion
Procedure: The ability of a number of adenosine kinase inhibitors to improve the recovery of post-ischemic function was examined in an isolated guinea pig heart model.
Isolated guinea pig hearts were cannulated via the ascending aorta and attached to a perfusion apparatus according to the method of Langendorff. The hearts were perfused at a constant pressure of 60 cm of H2O with a modified Krebs-Hanseleit buffer (pH 7.4) at 37°C. Left ventricular developed pressures (LVDP) were monitored continuously using a latex balloon attached to a pressure transducer. Coronary flows were measured gravimetrically by timed collection of pulmonary effluent. Following equilibration of the hearts for a period of 30 minutes, the hearts were subjected to 45 minutes of low flow ischemia, by reducing the perfusion pressure to 10 cm of H2O, and then reperfused for 30 minutes by restoring the pressure to its. original level (60 cm of H2O). The adenosine kinase inhibitors GP-1-238, GP-1-515 and GP1-547 were added to the perfusion buffer at the final concentrations specified. […] TABLE A

[4] = molecular target: T2, calf intestinal mucosa adenosine deaminase (Bos taurus, UniProt P56658); assay: Inhibition of adenosine deaminase activity; assay type: biochemical; conditions: 10 min at 37°C
T2 construct: 0.002 units of calf intestinal mucosa adenosine deaminase; from tissue; host or cells: calf intestinal mucosa
T2 sequence (P56658 1-363): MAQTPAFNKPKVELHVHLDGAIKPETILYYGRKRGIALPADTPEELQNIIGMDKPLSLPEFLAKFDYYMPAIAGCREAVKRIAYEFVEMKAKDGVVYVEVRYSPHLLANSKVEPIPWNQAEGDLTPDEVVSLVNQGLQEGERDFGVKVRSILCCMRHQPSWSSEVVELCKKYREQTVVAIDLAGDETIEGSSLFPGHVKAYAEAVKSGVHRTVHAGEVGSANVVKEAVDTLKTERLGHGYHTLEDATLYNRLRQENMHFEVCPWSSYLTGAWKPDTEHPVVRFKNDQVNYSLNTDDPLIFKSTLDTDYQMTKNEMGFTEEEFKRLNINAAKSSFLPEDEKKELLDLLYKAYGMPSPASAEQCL
Procedure: Different concentrations of the test compounds were incubated in the assay mixture for 10 min at 37°C. The reaction was monitored continuously for oxidation of NADH from the change in absorbance at 340nm.

[5] = system: platelet-induced coronary thrombosis; assay: Canine model of platelet-induced coronary thrombosis (Folts, cyclic flow reductions); assay type: in vivo
Procedure: GP-1-515 was tested in a canine model of platelet-induced coronary thrombosis (Folts, J., Circulation, 1991, 83[Suppl. IV]:IV-3-IV-14). In this model, platelets cyclically aggregate and embolize causing cyclic flow reductions (CFRs) that are quantitated by the frequency and the change in coronary blood flow from low point to peak with each cycle. […] TABLE C

guinea pig ileum = assay: Inhibition of contraction in isolated ileum; conditions: electrically stimulated; reversal by 8SPT and ADA; Figure 3
Procedure: The ability of adenosine kinase inhibition to affect stimulated contraction of muscle strips from the isolated ileum has been investigated.
Parallel platinum electrodes were used to deliver electrical current at 1 minute intervals at a voltage adequate to induce contraction of 90% of maximal. The adenosine kinase inhibitors, GP-1-515 or GP-1-547 were added to the tissue baths at different concentrations, with or without either the adenosine receptor antagonist, 8-sulphophenyltheophylline (8SPT) or adenosine deaminase (ADA), and the effects on contraction monitored.

Anesthetized male dogs = assay: Preclinical model of stable angina (pacing-induced ischemia); assay type: in vivo
Procedure: GP-1-515, was evaluated for its ability to prevent cumulative cardiac dysfunction associated with repeated episodes of pacing-induced ischemia.
Anesthetized male dogs were instrumented to measure regional myocardial wall thickening during right atrial pacing (Young & Mullane, Am. J. Physio., 1991, 261:1570-1577). Animals were subjected to six repeated episodes of pacing. A continuous IV infusion of […] of GP-1-515 or saline (control) -was administered post pace #1. […] TABLE B

adenosine kinase = adenosine kinase (Bos taurus, UniProt A0AAA9TET8); assay: Adenosine kinase inhibition in intact cells; assay type: cell-based
Procedure: Inhibition of adenosine kinase in intact cells was determined from the amount of incorporation of radioisotope from adenosine into the adenylates (AMP, ADP and ATP) in the presence of adenosine deaminase inhibition. Capillary endothelial cells from bovine heart were incubated for 60 min. With 20 µM 2'-deoxycoformycin, a potent adenosine deaminase inhibitor. Different concentrations of the test compounds were then added to the cells and incubated for 15 min. after which 5 µM [^3H]adenosine was added and the cells incubated for a further 15 min. The media was then discarded and the cells were treated with 50 µl 0.4 M perchloric acid, centrifuged and the supernatants neutralized with 100 µl alanine: freon (1:4). Radiosotope-labelled adenylates were separated by TLC on PEI cellulose plates developed in methanol:water (1:1) and incorporation of ^3H determined by scintillation counting.

[6] = in human blood; cited from earlier work
[7] = read-out: IC50 in the adenosine kinase inhibition assay

Chain of purified pig heart adenosine kinase (A0A5G2R0F5 1-362): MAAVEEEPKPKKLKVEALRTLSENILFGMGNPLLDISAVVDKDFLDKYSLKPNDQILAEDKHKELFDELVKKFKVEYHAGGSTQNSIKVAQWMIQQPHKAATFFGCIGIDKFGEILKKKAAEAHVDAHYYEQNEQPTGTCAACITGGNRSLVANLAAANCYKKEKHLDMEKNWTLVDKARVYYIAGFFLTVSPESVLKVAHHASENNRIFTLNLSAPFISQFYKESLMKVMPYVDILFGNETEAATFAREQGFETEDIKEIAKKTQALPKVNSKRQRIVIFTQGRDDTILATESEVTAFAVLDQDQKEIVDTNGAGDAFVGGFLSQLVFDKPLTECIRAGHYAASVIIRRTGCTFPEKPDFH
Chain of adenosine kinase (A0AAA9TET8 1-345): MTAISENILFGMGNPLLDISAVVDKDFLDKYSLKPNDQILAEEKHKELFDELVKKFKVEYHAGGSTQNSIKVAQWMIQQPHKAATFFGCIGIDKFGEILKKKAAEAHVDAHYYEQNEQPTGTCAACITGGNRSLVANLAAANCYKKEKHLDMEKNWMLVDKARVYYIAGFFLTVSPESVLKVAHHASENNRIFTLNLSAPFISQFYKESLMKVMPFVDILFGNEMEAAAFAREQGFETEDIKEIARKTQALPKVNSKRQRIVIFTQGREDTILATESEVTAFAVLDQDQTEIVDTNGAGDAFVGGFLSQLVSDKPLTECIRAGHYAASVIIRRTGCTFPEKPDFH

For `OC[C@H]1O[C@@H](n2cnc3c2N=CNC[C@H]3O)C[C@@H]1O` [2'-deoxycoformycin], the “adenosine release from the cells” value (rat cardiomyocytes) is given as “no effect on adenosine release”.
In the case of `CNc1ncnc2c1ncn2[C@@H]1O[C@H](CN)[C@@H](O)[C@H]1O` [GP-1-272], the “neutrophil adhesion to endothelial cells” value [1] is reported as “inhibit neutrophil adhesion to endothelial cells”.
For `C[C@H]1O[C@@H](n2cc(I)c3c(N)ncnc32)[C@H](O)[C@@H]1O` [GP-1-456, 5'-deoxy-5-iodotubercidin], the adenosine uptake (guinea pig brain slices) is given as “inhibited”, the body temperature (mice) is given as “hypothermia” and the “flaccidity and spontaneous locomotor activity” value (mice) is given as “pronounced general flaccidity and much-reduced spontaneous locomotor activity”. For the same compound, the “No. of Animals (protected/tested)” value (rats; 0.05 mg/kg orally) was 1/8, the “No. of Animals (protected/tested)” value (rats; 0.10 mg/kg orally) was 2/8 and the ED50 (rats; Rattus norvegicus, po, 1 h, orally, rats, from the data of Table E, read-out: ED50 for protection of electroshock-induced seizures) was 0.18 mg/kg. For the same compound, the “blood pressure and heart rate” value (anesthetized rats) was “decrease blood pressure and heart rate”, the adenosine uptake (rat brain slices) was “inhibited” and the “neutrophil adhesion to endothelial cells” value [1] was “inhibit neutrophil adhesion to endothelial cells”. For the same compound, the PTZ induced seizures (Male Swiss Webster mice) was “dose-dependent inhibition”.
With `NC[C@H]1O[C@@H](n2nc(Br)c3c(N)ncnc32)[C@H](O)[C@@H]1O` [GP-1-515] the IC50 (A1 receptor) was over 100 µM, the IC50 [2] was under 0.01 µM and the “Preischemic Flow” value [3] was 6.5 ± 0.3 mL/min/g. The “Functional Recovery (% preischemic LVDP)” value [3] was 79.0 ± 3.4 % preischemic LVDP, the IC50 [4] was over 1000 µM and the “(N abolished)/(N total)” value ([5]; 0.03 (dose, unit not given)) was 1/8. For the same compound, the “CFR (D flow)” value ([5]; 0.03 (dose, unit not given)) was 10.1 ± 2.6 (n=7), the “CFR (freq.)” value ([5]; 0.03 (dose, unit not given)) was 3.0 ± 0.6 (n=7) and the “(N abolished)/(N total)” value ([5]; 0.1 (dose, unit not given)) was 3/8. The “CFR (D flow)” value ([5]; 0.1 (dose, unit not given)) was 11.0 ± 2.1 (n=5), the “CFR (freq.)” value ([5]; 0.1 (dose, unit not given)) was 3.4 ± 0.8 (n=5) and the “(N abolished)/(N total)” value ([5]; 0.3 (dose, unit not given)) was 3/8. For the same compound, the “CFR (D flow)” value ([5]; 0.3 (dose, unit not given)) was 14.1 ± 1.9 (n=5), the “CFR (freq.)” value ([5]; 0.3 (dose, unit not given)) was 4.2 ± 0.6 (n=5) and the “CFRs abolished (animals)” value ([5]; summary) was 3 of 8. For the same compound, the “contraction of longitudinal muscle of the ileum” value (guinea pig ileum) was “Inhibition of contraction”, the “% of Non-Ischemic Wall Thickening” value (Anesthetized male dogs; Pace # 1 (infusion started post pace #1)) was 39.8 ± 3.2% and the “% of Non-Ischemic Wall Thickening” value (Anesthetized male dogs; Pace # 2, continuous IV infusion of 1 g/kg/min) was 43.6 ± 12.0%. The “% of Non-Ischemic Wall Thickening” value (Anesthetized male dogs; Pace # 3, continuous IV infusion of 1 g/kg/min) was 34.0 ± 19.0%, the “% of Non-Ischemic Wall Thickening” value (Anesthetized male dogs; Pace # 4, continuous IV infusion of 1 g/kg/min) was 50.5 ± 21.3% and the “% of Non-Ischemic Wall Thickening” value (Anesthetized male dogs; Pace # 5, continuous IV infusion of 1 g/kg/min) was 75.6 ± 19.4%. For the same compound, the “% of Non-Ischemic Wall Thickening” value (Anesthetized male dogs; Pace # 6, continuous IV infusion of 1 g/kg/min) was 62.6 ± 17.1% and the IC50 (adenosine kinase; Capillary endothelial cells from bovine heart, 20 µM 2'-deoxycoformycin; read-out: IC50 in the adenosine kinase inhibition assay in intact cells) was 0.009 µM.
For `NC[C@H]1O[C@@H](n2nc(I)c3c(N)ncnc32)[C@H](O)[C@@H]1O` [GP-1-547], the “Preischemic Flow” value [3] was 6.2 ± 0.3 mL/min/g, the “Functional Recovery (% preischemic LVDP)” value [3] was 79.0 ± 3.1 % preischemic LVDP and the “contraction of longitudinal muscle of the ileum” value (guinea pig ileum) was “Inhibition of contraction”.
For `NC[C@H]1O[C@@H](n2cc(Br)c3c(Cl)ncnc32)[C@H](O)[C@@H]1O` [GP-1-608, 7-(5-Amino-5-deoxy-1-β-D-ribofuranosyl)-5-bromo-4-chloropyrrolo [2,3-d]pyrimidine], the IC50 [2, 7] was under 0.01 µM.
In the case of `C[C@H]1O[C@@H](n2nc(-c3ccccc3)c3c(Nc4ccccc4)ncnc32)[C@H](O)[C@@H]1O` [GP-1-665], the IC50 [2, 7] is reported as under 0.01 µM and the IC50 (adenosine kinase; read-out: IC50 in the adenosine kinase inhibition assay in intact cells; Capillary endothelial cells from bovine heart, 20 µM 2'-deoxycoformycin) is reported as 0.0045 µM.
`[N-]=[N+]=NC[C@H]1O[C@@H](n2nc(-c3ccccc3)c3c(Nc4ccccc4)ncnc32)[C@H](O)[C@@H]1O` [GP-1-667] gave an IC50 [2, 7] of under 0.01 µM.
In the case of `OC[C@H]1O[C@@H](n2nc(-c3ccccc3)c3c(Nc4ccccc4)ncnc32)[C@H](O)[C@@H]1O` [GP-1-695], the IC50 [2, 7] is reported as under 0.01 µM.
`NC[C@H]1O[C@@H](n2nc(-c3ccccc3)c3c(Nc4ccccc4)ncnc32)[C@H](O)[C@@H]1O` [GP-1-704] showed an IC50 [2, 7] of under 0.01 µM.
For `Nc1ncnc2c1ncn2[C@@H]1O[C@H](CO)[C@@H](O)[C@H]1O` [adenosine], the half life [6] is listed as under 1 s.
